Columns and labels:
Melanocortin receptor 4 [1] = molecular target: T1, Melanocortin receptor 4 (Homo sapiens, UniProt P32245); test: Binding affinity against human melanocortin 4 receptor (hMC4R) using [125I]- ([Nle4]alpha-MSH) as radioligand
Melanocortin receptor 4 [2] = molecular target: T1, Melanocortin receptor 4; test: Binding affinity against human melanocortin 4 receptor (hMC4R) using [125I]- agouti related protein (AGRP) as radioligand
Melanocortin receptor 4 [3] = molecular target: T1, Melanocortin receptor 4; test: Inhibitory activity against hMC4R (human melanocortin receptor) using [125I]-[Nle4] alpha-MSH as radioligand
Melanocortin receptor 4 [4] = molecular target: T1, Melanocortin receptor 4; test: Inhibitory activity against hMC4R (human melanocortin receptor) using I-AGRP as radioligand
Melanocortin receptor 4 [5] = molecular target: T1, Melanocortin receptor 4; test: Binding affinity against human melanocortin 4 receptor (hMC4R) using [125I]- NDP-MSH as radioligand
[6] = molecular target: T2, Melanocyte-stimulating hormone receptor (Homo sapiens, UniProt Q01726); test: Inhibitory activity against hMC1R (human melanocortin receptor) using [125I]-[Nle4] alpha-MSH as radioligand
[7] = molecular target: T2, Melanocyte-stimulating hormone receptor; test: Inhibitory activity against hMC1R (human melanocortin receptor) using [125I]- ASIP Y radioligand
Melanocortin receptor 3 [8] = molecular target: T3, Melanocortin receptor 3 (Homo sapiens, UniProt P41968); test: Inhibitory activity against hMC3R (human melanocortin receptor) using [125I]-[Nle4] alpha-MSH as radioligand
Melanocortin receptor 3 [9] = molecular target: T3, Melanocortin receptor 3; test: Inhibitory activity against hMC3R (human melanocortin receptor) using I-AGRP as radioligand
Melanocortin receptor 4 [10] = molecular target: T1, Melanocortin receptor 4; test: Binding affinity against human melanocortin 4 receptor (hMC4R) using [125I]- ([Nle4]alpha-MSH) as radioligand; NA: Not active
Melanocortin receptor 4 [11] = molecular target: T1, Melanocortin receptor 4; test: Binding affinity against human melanocortin 4 receptor (hMC4R) using [125I]- agouti related protein (AGRP) as radioligand; NA: Not active

T1 sequence (P32245 whole entry): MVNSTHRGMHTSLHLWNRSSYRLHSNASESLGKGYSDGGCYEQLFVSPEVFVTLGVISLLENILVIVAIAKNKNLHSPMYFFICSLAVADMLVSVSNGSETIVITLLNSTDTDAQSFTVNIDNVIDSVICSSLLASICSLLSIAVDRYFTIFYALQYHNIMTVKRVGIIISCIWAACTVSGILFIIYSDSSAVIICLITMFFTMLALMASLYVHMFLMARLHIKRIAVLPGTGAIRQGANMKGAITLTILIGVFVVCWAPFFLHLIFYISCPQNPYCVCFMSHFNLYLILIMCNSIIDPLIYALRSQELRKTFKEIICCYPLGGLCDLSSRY
T2 sequence (Q01726 whole entry): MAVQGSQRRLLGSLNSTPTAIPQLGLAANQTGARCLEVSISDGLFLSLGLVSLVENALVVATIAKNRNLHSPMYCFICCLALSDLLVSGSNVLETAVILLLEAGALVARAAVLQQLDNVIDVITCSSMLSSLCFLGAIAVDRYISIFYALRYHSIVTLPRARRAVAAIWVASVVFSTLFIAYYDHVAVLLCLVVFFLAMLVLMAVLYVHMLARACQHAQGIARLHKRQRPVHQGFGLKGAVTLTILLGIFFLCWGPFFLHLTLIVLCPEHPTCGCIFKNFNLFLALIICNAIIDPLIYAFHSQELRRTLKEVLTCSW
T3 sequence (P41968 whole entry): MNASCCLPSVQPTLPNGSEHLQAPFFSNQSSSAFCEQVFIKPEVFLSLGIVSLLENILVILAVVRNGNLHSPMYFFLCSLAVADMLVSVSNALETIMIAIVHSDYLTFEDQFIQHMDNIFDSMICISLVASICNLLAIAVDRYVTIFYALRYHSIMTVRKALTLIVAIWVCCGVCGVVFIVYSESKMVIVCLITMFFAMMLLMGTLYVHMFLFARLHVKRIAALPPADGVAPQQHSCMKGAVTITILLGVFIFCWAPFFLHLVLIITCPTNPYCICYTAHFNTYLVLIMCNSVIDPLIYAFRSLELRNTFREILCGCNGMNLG

In the case of `NC(=O)CN(Cc1ccccc1)C(=O)CN(Cc1ccccc1)C(=O)CNCCCN=C(N)N`, the IC50 (Melanocortin receptor 4 [1]) is reported as > 100 µM and the IC50 (Melanocortin receptor 4 [2]) is reported as > 100 µM.
`C[C@H](c1ccccc1)N(CC(N)=O)C(=O)CN(C(=O)CNCCCNC(=N)N)C(c1ccccc1)c1ccccc1` showed an IC50 (Melanocortin receptor 4 [1]) of 3.1 µM, an IC50 (Melanocortin receptor 4 [3]) of 3.1 µM and an IC50 (Melanocortin receptor 4 [4]) of 1.9 µM. The IC50 (Melanocortin receptor 4 [5]) was 2.1 µM, the IC50 (Melanocortin receptor 4 [2]) was 1.9 µM and the IC50 [6] was 9.1 µM. For the same compound, the IC50 [7] was 25 µM, the IC50 (Melanocortin receptor 3 [8]) was 48 µM and the IC50 (Melanocortin receptor 3 [9]) was > 50 µM.
For `C[C@@H](c1ccccc1)N(CC(N)=O)C(=O)CN(Cc1ccccc1)C(=O)CNCCCN=C(N)N`, the IC50 (Melanocortin receptor 4 [10]) was “Not Active” and the IC50 (Melanocortin receptor 4 [11]) was “Not Active”.
With `C[C@H](c1ccccc1)N(CC(N)=O)C(=O)CN(Cc1ccccc1)C(=O)CNCCCN=C(N)N` the IC50 (Melanocortin receptor 4 [1]) was > 100 µM and the IC50 (Melanocortin receptor 4 [2]) was > 100 µM.
For `CC(C)(C(N)=O)N(Cc1ccccc1)C(=O)CN(CCc1ccccc1)C(=O)CNCCCN=C(N)N`, the IC50 (Melanocortin receptor 4 [1]) was > 100 µM.

From ChEMBL document CHEMBL1136698, “Peptoid mimics of agouti related protein” (Bioorg Med Chem Lett, 2003)
